# Data taken from patent US20080050398A1, “Composition Comprising Beta-Defensin 2” (priority 2005, published 2008).
# No end group written: not given here.
# Tests used:
# [1] = test system: xylanase; test: Compatibility of surfactants with enzymes: remaining enzyme activity; assay type: biochemical; conditions: 0.1% SDS
# Description: (§1) In selection of suitable surfactants, one must make sure that they are compatible with the enzymes used. It is preferable that the enzyme activity not decrease more than 50%, particularly not more than 30%, during a typical average working time of 15 minutes. Thus, tests have shown that sodium dodecyl sulfate (SDS), which is known to be a denaturant, reduces the activity of corolase to less than 30% within 15 minutes, even at a concentration of 1%, while the activity of xylanase decreases to less than 40% with only 0.1% SDS, so that surfactant is not preferred for use in the cleaning agents according to the invention. If that surfactant, or one with similar action, must nevertheless be used, one should preferably make sure of spatial separation during storage, such as by encapsulating the enzyme or by use of a multichamber bottle so that the enzyme and surfactant come into contact with each other only immediately before or during use. Alkyl polyglycosides, on the other hand, are well suited for use in enzyme-containing agents according to this invention. For instance, the activity of corolase remains clearly over 50% even with 3% APG 600, while xylanase actually experiences an increase in activity from the use of APG 600 (more than 150% activity with 0.1% surfactant) and still has more than 80% activity with 3% APG.
# [2] = test system: corolase; test: as above; assay type: biochemical; conditions: 1% SDS, within 15 minutes
# Description: as §1
# [3] = test system: Staphylococcus epidermidis; test: Inhibition of skin microorganisms by human β-defensin 2: CFU count, reduction factor vs control; assay type: cell-based; conditions: S. epidermidis; for inhibition of the microorganism (in words): useful skin microorganism; for logarithmic decrease in the cell number (RF): 35.7 μg/ml, compared with the control
# Description: (§2) Staphylococcus epidermidis and bacillus lichenformis were grown in LB medium under aerobic conditions at 37° C. Propionibacterium acnes was grown in TBST medium under anaerobic conditions at 37° C. The concentration of human β-defensin 2 was 35.7 μg/ml. Procedure: 18-hour cultures (S. epidermidis and B. lichenformis) or 5-day cultures (P. acnes) in LB or TBST liquid media; Measurement of the cultures at A620 nm; Adjustment in PBS [phosphate-buffered saline] to the proper A620 nm for 10^6 CFU/ml of the test strain; Microbial content checked with a dilution series in MTP brief procedure and plating; Make up stock solution of the ingredient AWK in PBS; Put 10 μl aliquots of the test strain suspension in the PCR tubes provided for AWK and control; Add to each 10 μl aliquots of AWK or PBS; Incubate aerobically at 37° C.; Determine the microbial content of the suspensions after 8 and 24 hours, with a dilution series in the MTP brief procedure and plating; Incubation of the agar plates under proper conditions for the strain; Evaluation, by visual check of the cultured agar plates, 8 or 24 hours after the start of the test; determination of the CFU and calculation of the reduction factors.
# [4] = test system: bacillus lichenformis; test: as above; assay type: cell-based; conditions: B. lichenformis; for inhibition of the microorganism (in words): useful skin microorganism; for logarithmic decrease in the cell number (RF): 35.7 μg/ml, compared with the control
# Description: as §2
# [5] = test system: Propionibacterium acnes; test: as above; assay type: cell-based; conditions: P. acnes; for inhibition of the microorganism (in words): harmful organism; for logarithmic decrease in the cell number (RF): 35.7 μg/ml, compared with the control
# Description: as §2
Compound,activity of xylanase [1],activity of corolase [2],inhibition of the microorganism (in words) ([3]; listed as human β-defensin 2),inhibition of the microorganism (in words) ([3]; listed as β-defensin 2),logarithmic decrease in the cell number (RF) ([3]; exposure time 8 hr),logarithmic decrease in the cell number (RF) ([3]; exposure time 24 hr),inhibition of the microorganism (in words) ([4]; listed as human β-defensin 2),inhibition of the microorganism (in words) ([4]; listed as β-defensin 2),logarithmic decrease in the cell number (RF) ([4]; exposure time 8 hr),logarithmic decrease in the cell number (RF) ([4]; exposure time 24 hr),inhibition of the microorganism (in words) ([5]; listed as human β-defensin 2),inhibition of the microorganism (in words) ([5]; listed as β-defensin 2),logarithmic decrease in the cell number (RF) ([5]; exposure time 8 hr),logarithmic decrease in the cell number (RF) ([5]; exposure time 24 hr)
"CCCCCCCCCCCCOS(=O)(=O)[O-].[Na+] [SDS, sodium dodecyl sulfate]",less than 40%,less than 30%,,,,,,,,,,,,
human β-defensin 2 (GIGDPVTCLKSGAICHPVFCPRRYKQIGGCGLPGTKCCKKP; ends and bridges not checked; cysteine pairing not given here) [used as hBD2 (Sigma) in the formulations],,,only slight inhibition,only a slight inhibitory effect,0.1963,0.09922,only slight inhibition,only a slight inhibitory effect,0.09275,0.3716,good inhibition,distinctly more strongly inhibited,0.9586,1.833
